Reference: patent US9862686B2, “N1-sulfonyl-5-fluoropyrimidinone derivatives” (Adama Makhteshim Ltd., priority 2009, dated 2018)
Where two headings read alike, the source gives them in different places.

Tests used:
[1] = test system: Mycosphaerella graminicola; Anamorph: Septoria tritici; Bayer Code SEPTTR; assay: Fungicidal activity: leaf blotch of wheat, protectant and curative treatment of inoculated wheat plants; format: in vivo; conditions: Zymoseptoria tritici
Experimental: Evaluation of Fungicidal Activity: Leaf Blotch of Wheat (Mycosphaerella graminicola; Anamorph: Septoria tritici; Bayer Code SEPTTR)
Wheat plants (variety Yuma) were grown from seed in a greenhouse in 50% mineral soil/50% soil-less Metro mix until the first leaf was fully emerged, with 7-10 seedlings per pot. These plants were inoculated with an aqueous spore suspension of Septoria tritici either prior to or after fungicide treatments. After inoculation the plants were kept in 100% relative humidity (one day in a dark dew chamber followed by two to three days in a lighted dew chamber) to permit spores to germinate and infect the leaf. The plants were then transferred to a greenhouse for disease to develop.
The following table presents the activity of typical compounds of the present disclosure when evaluated in these experiments. The effectiveness of the test compounds in controlling disease was determined by assessing the severity of disease on treated plants, then converting the severity to percent control based on the level of disease on untreated, inoculated plants.
In each case of Table II the rating scale is as follows: […]

[2] = 24 h, read-out: SEPTTR 100 PPM 1DP (% Disease Control rating)
[3] = 72 h, read-out: SEPTTR 100 PPM 3DC (% Disease Control rating)

Row | Compound | melting point [°C] | pest or weed control at 100 ppm ([1]; 24 h, One-Day Protectant (1DP), 100 ppm, wheat plants (variety Yuma), percent control vs untreated inoculated plants, read-out: SEPTTR 100 PPM 1DP (% Disease Control rating)) [%] | pest or weed control at 100 ppm ([1]; 72 h, Three-Day Curative (3DC), 100 ppm, wheat plants (variety Yuma), percent control vs untreated inoculated plants, read-out: SEPTTR 100 PPM 3DC (% Disease Control rating)) [%] | pest or weed control at 100 ppm [1, 2] [%] | pest or weed control at 100 ppm [1, 3] [%]
1 | O=c1nc(NC(=S)Nc2ccccc2)c(F)cn1S(=O)(=O)c1cccs1 [Cmpd 46] | 182 to 185 | 0 to 25 | 26 to 50 | – | –
2 | O=C(Nc1nc(=O)n(S(=O)(=O)c2ccccc2)cc1F)Oc1ccccc1 [Cmpd 47, (1-benzenesulfonyl-5-fluoro-2-oxo-1,2-dihydropyrimidin-4-yl)carbamic acid phenyl ester] | 182 to 185 | – | – | 51 to 75 | 76 to 100
3 | COc1ccc(S(=O)(=O)n2cc(F)c(NC(=O)Oc3ccccc3)nc2=O)cc1 [Cmpd 49] | 138 to 142 | – | – | 0 to 25 | 76 to 100
4 | O=C(Nc1nc(=O)n(S(=O)(=O)c2c(Cl)cccc2Cl)cc1F)Oc1ccccc1 [Cmpd 50] | 199 to 203 | – | – | 76 to 100 | 76 to 100
